We go through 1 compound from patent US20210145964A1, “STROMA-TARGETING TREATMENT FOR PATIENTS WITH ELEVATED ADAM12 LEVELS” (Academisch Medisch Centrum, priority 2019, published 2021).

In this experiment the test system is metastatic adenocarcinoma of the pancreas. As to the kind of experiment: MPACT phase III trial, overall survival by plasma ADAM12 group. Conditions: poorest-outcome group: ADAM12 became detectable or increased at cycle 2.

SMILES strings stand for the structures.

Experimental: In the MPACT trial cohort, collection of plasma samples for biomarker development was optional and separate written consent was obtained for sample collection and biomarker analysis. […] All patients provided informed consent. […] Patients were randomized 1:1 (stratified by performance status, presence of liver metastases, and region) to receive nab-paclitaxel 125 mg/m^2 plus gemcitabine 1,000 mg/m^2 on days 1, 8, and 15 every 28 days or gemcitabine alone 1,000 mg/m^2 on days 1, 8, 15, 22, 29, 36, and 43 in 56 days (cycle 1) and then on days 1, 8, and 15 every 28 days (cycle≥2). Treatment continued until disease progression or unacceptable toxicity.
MPACT trial blood samples were collected in EDTA tubes to chelate calcium and prevent blood clotting, and storage at −80° C. until analysis. To allow the analysis of these plasma samples using the ADAM12 DuoSet ELISA, recalcification was required. […]
For the MPACT cohort, baseline ADAM12 values were categorized into undetectable (0) and detectable (>0). The fold change of ADAM12 at cycle 2, day 1 (C2D1) from baseline (cycle 1, day 1; C1D1) was calculated by the results at C2D1 divided by the value at C1D1. […] All eligible samples were measured and no power calculation was performed. Overall survival was analyzed using Kaplan-Meier method and log-rank test. […]

As to `Nc1ccn([C@@H]2O[C@H](CO)[C@@H](O)C2(F)F)c(=O)n1` [gemcitabine], the overall survival worked out at 6.9 months.
